PMC13586308, “Cell type–selective targeting by heterobifunctional protein binders via in-cell enrichment” (Nature Communications, 2026)
Like-named read-outs stand apart in the source and are kept apart here.

Experiments:
[1] = biological target: T1, FKBP12 (Homo sapiens, UniProt P62942); test: competitive fluorescence polarization assay, binding to FKBP12; conditions: competitive FP assay
[2] = biological target: T2, BRD4 (Homo sapiens, UniProt O60885); test: NanoBRET BRD4, transient BRD4-NanoLuc in HEK293T cells; assay type: cell-based; conditions: intact HEK293 cells
T2 construct: full-length BRD4 fused to NanoLuc at N terminus; expressed in transfected cells; host or cells: HEK293T
Method: The NanoBRET assay was performed as described previously[26],[39]. To study BRD4 engagement, we employed two models: cells stably expressing BRD4-NanoLuc and cells with transient BRD4-NanoLuc expression. For stable cell lines, the coding sequence of human BRD4 (Isoform B) was fused in-frame to NanoLuc luciferase under the control of the human ubiquitin C (UbC) promoter, with left and right homology arms targeting the AAVS1 locus in intron 1 of the PPP1R12C gene to facilitate genomic integration. PC3 prostate cancer cells were transfected with this construct and vectors expressing Cas9 and an sgRNA targeting the AAVS1 locus using Lipofectamine 3000 (Invitrogen). Successful integrands were selected with blasticidin. Expression of the fusion protein was confirmed by western blot. For transient experiments, full-length BRD4 fused to NanoLuc at N terminus, was cloned into an expression plasmid and transfected into HEK293T cells using FuGENE HD (Promega, E2312), with protein expression allowed for 20 h. Serially diluted inhibitors and BRD Tracer-02 (Promega, TracerDB ID: T000022) at the Tracer KD concentration (from TracerDB)[40] were dispensed into white 384-well plates (Greiner 781207) using an ECHO 550 acoustic dispenser (Labcyte). The cells were trypsinized, resuspended in Opti-MEM without phenol red (Life Technologies), and seeded at 2 × 10^5 cells/mL. After equilibration for 2 h at 37 °C/5% CO₂ following compound treatment, the NanoBRET® NanoGlo Substrate + Extracellular NanoLuc® Inhibitor (Promega, N2162) was added according to the manufacturer’s protocol, and filtered luminescence was measured on a PHERAstar plate reader (BMG Labtech) using a donor (450 nm BP) and acceptor (610 nm LP) filter pair. Competitive displacement data were analyzed using GraphPad Prism 9 with a normalized 3-parameter curve fit: Y = 100/(1 + 10^(X − log IC₅₀)). For BRET measurements after FKBP12 knockdown in stably expressing BRD4 Nano-Luc reporter cell line, 10 nL/per well of the FKBP12 PROTAC was pipetted to each well using Labcyte to achieve the final concentration of 200 nM and the plated cells were incubated over-night at 37 °C and 5% CO2. BRET measurements were performed as outlined above.

[3] = biological target: T3, BRD4^BD2 (Homo sapiens, UniProt O60885); test: competitive fluorescence polarization assay, BRD4 BD2 -/+ presenter protein; assay type: binding; conditions: for α BRD4^BD2 (binding cooperativity factor): ratio of binding in absence or presence of FKBP12
T3 construct: to the isolated BD1 and BD2 domains of BRD2, BRD3 and BRD4

[4] = biological target: T1, FKBP12; test: NanoBRET FKBP12 in intact HEK293 cells; assay type: cell-based
[5] = biological target: T4, BRD4^BD1 (Homo sapiens, UniProt O60885); test: competitive fluorescence polarization assay, BRD4 BD1 -/+ presenter protein; assay type: binding; conditions: for α BRD4^BD1 (binding cooperativity factor): ratio of binding in absence or presence of FKBP12
T4 construct: to the isolated BD1 and BD2 domains of BRD2, BRD3 and BRD4

[6] = absence of FKBP12, 2 nM JQ1-FL tracer, read-out: Binding to BRD4^BD2 - FKBP12 Kd
[7] = presence of 15 µM FKBP12, read-out: Binding to BRD4^BD2 + FKBP12 Kd (converted)
[8] = absence of FKBP12, 2 nM JQ1-FL tracer, read-out: Binding to BRD4^BD1 - FKBP12 Kd
[9] = presence of 15 µM FKBP12, read-out: Binding to BRD4^BD1 + FKBP12 Kd (converted)

T1 sequence (P62942 whole entry): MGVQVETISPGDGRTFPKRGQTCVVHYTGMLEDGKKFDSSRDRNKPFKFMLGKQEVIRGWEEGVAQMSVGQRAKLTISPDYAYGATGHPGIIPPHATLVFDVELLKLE

Compound | Kd [1] [nM] | IC50 [2] [nM] | Kd [3, 6] [nM] | α BRD4^BD2 (binding cooperativity factor) [3] | IC50 [4] [nM] | α BRD4^BD1 (binding cooperativity factor) [5] | Kd [3, 7] [nM] | Kd [5, 8] [nM] | Kd [5, 9] [nM] | nanoBRET BRD4 IC50 [2]
Cc1sc2c(c1C)C(c1ccc(Cl)cc1)=NC(CC(=O)NCCOCCn1cc(C3CN(Cc4ccccn4)C(=O)C4CCCC3N4S(=O)(=O)c3cc(Cl)cc(Cl)c3)nn1)c1nnc(C)n1-2 (stereo not shown) [a1c] | 1 | 940 | 590 ± 110 | 0.4 | 22 | 0.3 |  |  |  | 
Cc1sc2c(c1C)C(c1ccc(Cl)cc1)=NC(CC(=O)NCCOCCn1cc(COCC3CN(CC(=O)N4CCC(C)CC4)C(=O)C4CCCC3N4S(=O)(=O)c3cc(Cl)cc(Cl)c3)nn1)c1nnc(C)n1-2 (stereo not shown) [a1dk] | 0.47 | 1190 | 320 ± 60 | 0.4 | 9.1 | 2.6 | 800 ± 100 | 520 ± 90 | 200 ± 40 | 
Cc1sc2c(c1C)C(c1ccc(Cl)cc1)=NC(CC(=O)NCCOCCn1cc(COC(C)C3CN(Cc4ccccn4)C(=O)C4CCCC3N4S(=O)(=O)c3cc(Cl)cc(Cl)c3)nn1)c1nnc(C)n1-2 (stereo not shown) [a1e] | 8.9 | 390 | 33 ± 9 | 0.6 | 103 | 1.5 | 60 ± 10 | 70 ± 10 | 48 ± 7 | 
Cc1sc2c(c1C)C(c1ccc(Cl)cc1)=NC(CC(=O)NCCOCCn1cc(COC(C)C3CN(Cc4ccccn4)C(=O)C4CCCC3N4S(=O)(=O)c3cc(Cl)cc(Cl)c3)nn1)c1nnc(C)n1-2 (stereo not shown) [a1f] | 1.6 | 560 | 50 ± 14 | 0.2 | 24 | 1.3 | 230 ± 30 | 180 ± 20 | 140 ± 14 | 
C=CC1CN(Cc2ccccn2)C(=O)C2CCCC1N2S(=O)(=O)c1cc(Cl)cc(-c2cn(CCOCCNC(=O)CC3N=C(c4ccc(Cl)cc4)c4c(sc(C)c4C)-n4c(C)nnc43)nn2)c1 (stereo not shown) [a1g] | 46 | 1500 |  | 0.2 | 230 |  |  |  | > 20000 | 
C=CC1CN(Cc2ccccn2)C(=O)C2CCCC1N2S(=O)(=O)c1ccc(-c2cn(CCOCCNC(=O)CC3N=C(c4ccc(Cl)cc4)c4c(sc(C)c4C)-n4c(C)nnc43)nn2)c(Cl)c1 (stereo not shown) [a1h] | 50 | 270 | 52 ± 13 |  | 530 |  | 1100 ± 200 | 100 ± 18 | 1700 ± 200 | 
C=CC1CN(Cc2cn(CCOCCNC(=O)CC3N=C(c4ccc(Cl)cc4)c4c(sc(C)c4C)-n4c(C)nnc43)nn2)C(=O)C2CCCC1N2S(=O)(=O)c1cc(Cl)cc(Cl)c1 (stereo not shown) [a1i] | 10 | 560 | 910 ± 160 | 0.3 | 200 | 0.5 |  |  |  | 
Cc1sc2c(c1C)C(c1ccc(Cl)cc1)=NC(CC(=O)NCCOCCOCCn1cc(C3CN(Cc4ccccn4)C(=O)C4CCCC3N4S(=O)(=O)c3cc(Cl)cc(Cl)c3)nn1)c1nnc(C)n1-2 (stereo not shown) [a2c] | 0.6 | 620 | 510 ± 110 | 0.5 | 17 | 1.8 |  | 440 ± 70 | 250 ± 40 | 
C=CC1CN(Cc2ccccn2)C(=O)C2CCCC1N2S(=O)(=O)c1cc(Cl)cc(-c2cn(CCOCCOCCNC(=O)CC3N=C(c4ccc(Cl)cc4)c4c(sc(C)c4C)-n4c(C)nnc43)nn2)c1 (stereo not shown) [a2g] | 76 | 3070 | 580 ± 90 | 0.4 |  | 0.4 |  |  |  | 
C=C[C@H]1CN(Cc2ccccn2)C(=O)[C@@H]2CCC[C@H]1N2S(=O)(=O)c1ccc(-c2cn(CCOCCOCCNC(=O)C[C@@H]3N=C(c4ccc(Cl)cc4)c4c(sc(C)c4C)-n4c(C)nnc43)nn2)c(Cl)c1 [a2h] | 2.4 | 300 | 46 ± 10 |  | 170 |  | 1300 ± 200 | 210 ± 18 | 2400 ± 200 | 
C=CC1CN(Cc2cn(CCOCCOCCNC(=O)CC3N=C(c4ccc(Cl)cc4)c4c(sc(C)c4C)-n4c(C)nnc43)nn2)C(=O)C2CCCC1N2S(=O)(=O)c1cc(Cl)cc(Cl)c1 (stereo not shown) [a2i] | 8.7 | 790 | 140 ± 30 | 0.1 | 180 | 1.1 | 960 ± 120 | 330 ± 40 | 290 ± 30 | 
Cc1sc2c(c1C)C(c1ccc(Cl)cc1)=NC(CC(=O)N1CCN(CCn3cc(COCC4CN(Cc5ccccn5)C(=O)C5CCCC4N5S(=O)(=O)c4cc(Cl)cc(Cl)c4)nn3)CC1)c1nnc(C)n1-2 (stereo not shown) [a4d] | 1.1 |  |  | 1 | 89 | 1.3 |  | 500 ± 60 | 380 ± 50 | none
Cc1sc2c(c1C)C(c1ccc(Cl)cc1)=NC(CC(=O)N1CCN(CCCn3cc(COCC4CN(Cc5ccccn5)C(=O)C5CCCC4N5S(=O)(=O)c4cc(Cl)cc(Cl)c4)nn3)CC1)c1nnc(C)n1-2 (stereo not shown) [a5d] | 1.2 | 1080 |  | 1.8 | 93 | 2.5 | 600 ± 100 | 740 ± 100 | 300 ± 50 | 
Cc1sc2c(c1C)C(c1ccc(Cl)cc1)=NC(CC(=O)N1CCN(CCCCn3cc(COCC4CN(Cc5ccccn5)C(=O)C5CCCC4N5S(=O)(=O)c4cc(Cl)cc(Cl)c4)nn3)CC1)c1nnc(C)n1-2 (stereo not shown) [a6d] | 0.9 | 787 |  | 1.8 | 141 | 1.5 | 800 ± 200 | 600 ± 80 | 400 ± 50 | 
Cc1sc2c(c1C)C(c1ccc(Cl)cc1)=NC(CC(=O)N1CCC(CN3CCC(n4cc(C5CN(Cc6ccccn6)C(=O)C6CCCC5N6S(=O)(=O)c5cc(Cl)cc(Cl)c5)nn4)CC3)CC1)c1nnc(C)n1-2 (stereo not shown) [a7c] | 3.5 | 665 | 700 ± 100 | 0.8 | 138 | 2.9 | 900 ± 200 | 520 ± 80 | 180 ± 30 | 
Cc1sc2c(c1C)C(c1ccc(Cl)cc1)=NC(CC(=O)N1CCC(CN3CCC(n4cc(COCC5CN(Cc6ccccn6)C(=O)C6CCCC5N6S(=O)(=O)c5cc(Cl)cc(Cl)c5)nn4)CC3)CC1)c1nnc(C)n1-2 (stereo not shown) [a7d] | 2.3 | 1110 | 700 ± 100 | 1 | 209 | 2.2 | 660 ± 90 | 680 ± 70 | 310 ± 50 | 
Cc1sc2c(c1C)C(c1ccc(Cl)cc1)=NC(CC(=O)N1CCC(CN3CCC(Cn4cc(C5CN(Cc6ccccn6)C(=O)C6CCCC5N6S(=O)(=O)c5cc(Cl)cc(Cl)c5)nn4)CC3)CC1)c1nnc(C)n1-2 (stereo not shown) [a8c] | 2.1 | 541 | 190 ± 30 | 1.2 | 178 | 1.1 | 160 ± 30 | 170 ± 20 | 150 ± 20 | 
Cc1sc2c(c1C)C(c1ccc(Cl)cc1)=NC(CC(=O)N1CCC(CN3CCC(Cn4cc(COCC5CN(Cc6ccccn6)C(=O)C6CCCC5N6S(=O)(=O)c5cc(Cl)cc(Cl)c5)nn4)CC3)CC1)c1nnc(C)n1-2 (stereo not shown) [a8d] | 1.8 | 357 | 130 ± 30 | 1 | 228 | 1.9 | 120 ± 30 | 160 ± 30 | 84 ± 16 | 
